We go through 4 compounds from article PMC6350255 (Journal of medicinal chemistry, 2018).

The test system of series [1] is human β-cells (dispersed human pancreatic islets). It is filed as cell-based. The following applies: for human β-cell proliferation in words, dose response / overall: doses of 3–30 μM.
The subject of series [2] is NFAT2-GFP nuclear translocation in R7T1 rat beta cell line. Description: NFAT2 translocation assay. The format is cell-based. The following applies: 10 μM, 24 h.

“Also recorded” adds a separate entry of the source.

With `COc1ccc2c(c1)[nH]c1c(C(C)=O)nccc12` [Compound 3–2, 1-Acetyl-7-methoxy-9H-β-carboline], in series [1], the “human β-cell proliferation in words, dose response / overall” value is recorded as “comparable to that of harmine”.

As for `COc1ccc2c(c1)[nH]c1c(CO)nccc12` [Compound 2–2, 1-Hydroxymethyl-7-methoxy-9H-β-carboline], in series [2], the “NFAT2 translocation to nucleus” value is reported as “drove NFAT2 translocation”. In the series on human β-cells, the beta cell toxicity result was “did not cause toxicity”.

As to `COc1ccc2c(c1)[nH]c1c(Cl)nccc12` [1–5, 1-Chloro-7-methoxy-9H-β-carboline], the “human β-cell proliferation in words, dose response / overall” value in series [1] is given as “comparable to that of harmine”.

`COc1ccc2c(c1)[nH]c1c(C)nc(CO)cc12` [2–8, (1-Methyl-7-methoxy-9H-pyrido[3,4-b]indol-3-yl)methanol]: the “NFAT2 translocation to nucleus” value in series [2] is “drove NFAT2 translocation”. In addition, the “human β-cell proliferation, Ki-67 immunolabeling” value in series [1] (10 μM, 96 h) is given as “comparable to that of harmine”. Also, the “human β-cell proliferation in words, dose response / overall” value in series [1] is “excellent human β-cell proliferation; also recorded: caused proliferation in a dose-dependent manner; also recorded: superior human β-cell proliferation at a lower dose as compared to 2–2; also recorded: comparable to that of harmine”. Moreover, in the series on human β-cells, the beta cell toxicity entry is “did not cause toxicity”.
